According to US12220417B2, “Pharmaceutical compositions comprising (S)-2-(2,6-dioxopiperidin-3-yl)-4-((2-fluoro-4-((3-morpholinoazetidin-1-yl)methyl)benzyl)amino)isoindoline-1,3-dione and methods of using the same” (Celgene Corporation, priority 2019, dated 2025):

Legend:
ROS-50 = assay: Flow cytometry viability/apoptosis assay, ROS-50; assay type: cell-based; conditions: ROS-50, DLBCL; 120 hours; read-out: % Viable Cells IC50
Method: (§1) Cell Proliferation and Viability Assay Using Hematological Cell Lines: The following exemplary anti-proliferative assay uses exemplary hematological cell lines in the following. The in vitro growth inhibitory activity of Compound 1 described herein was evaluated using a 384-well flow cytometry assay.
(§2) The cell lines were plated in 384-well flat bottom plates and assessed with increasing concentrations of compound ranging from 0.00015 to 10 μM or dimethyl sulfoxide (DMSO) control. The final concentration of DMSO was 0.1% (v/v). Following the addition of Compound 1 or DMSO and incubation for 120 hours, cell number and cell death were analyzed by flow cytometry (Attune®, Thermo Fisher) using Annexin V and the live-cell impermeant DNA dye, DRAQ7. […]
(§3) Flow cytometry data analysis was then performed using the Flow Jo_v10 software to determine the number of viable cells (Annexin V and DRAQ7 double negative staining cells) and percentage of apoptotic cells (Annexin V positive cells) for each condition. […] The IC50 (50% inhibitory concentration) and Emax (maximum efficacy achieved) values were then calculated by performing nonlinear regression curve fitting using log(inhibitor) vs. normalized response—variable slope analysis on GraphPad Prism 7.03. Area under the curve (AUC) was calculated by performing area under curve analysis on GraphPad Prism 7.03. […]

PGA1 = assay: Flow cytometry viability/apoptosis assay, PGA1; assay type: cell-based; conditions: PGA1, CLL; 120 hours; read-out: % Viable Cells IC50
Method: as §1, §2, §3

CII = assay: Flow cytometry viability/apoptosis assay, CII; assay type: cell-based; conditions: CLL, 120 hours, read-out: % Viable Cells IC50
Method: as §1, §2, §3

Solubility of Compound 1 = assay type: physicochemical; conditions: compared to the low dose / proposed dose levels
hematological cell lines = assay: Cell Proliferation and Viability Assay Using Hematological Cell Lines (whole panel); assay type: cell-based; conditions: panel of hematological cell lines, 0.00015 to 10 μM, 5 days
Method: as §1, §2, §3

OCI-LY3 = assay: Flow cytometry viability/apoptosis assay, OCI-LY3; assay type: cell-based; conditions: Homo sapiens; OCI-LY3, DLBCL ABC; 120 hours; read-out: % Viable Cells IC50
Method: as §1, §2, §3

Mec1 = assay: Flow cytometry viability/apoptosis assay, Mec1; assay type: cell-based; conditions: Homo sapiens; Mec1, CLL; 120 hours; read-out: % Viable Cells IC50
Method: as §1, §2, §3

DB = assay: Flow cytometry viability/apoptosis assay, DB; assay type: cell-based; conditions: Homo sapiens, DLBCL GCB, 120 hours, read-out: % Viable Cells IC50
Method: as §1, §2, §3

WA-OSEL = assay: Flow cytometry viability/apoptosis assay, WA-OSEL; assay type: cell-based; conditions: CLL, 120 hours, read-out: % Viable Cells IC50
Method: as §1, §2, §3

HG3 = assay: Flow cytometry viability/apoptosis assay, HG3; assay type: cell-based; conditions: HG-3; HG3, CLL; 120 hours; read-out: % Viable Cells IC50
Method: as §1, §2, §3

| solubility (Solubility of Compound 1) | IC50 (OCI-LY3) | SMILES | IC50 (ROS-50) | IC50 (PGA1) | IC50 (CII) | antiproliferative activity and/or apoptotic effects (hematological cell lines) | IC50 (Mec1) | IC50 (DB) | IC50 (WA-OSEL) | IC50 (HG3) |
| --- | --- | --- | --- | --- | --- | --- | --- | --- | --- | --- |
| relatively high | ≥ 10 µM | O=C1CC[C@H](N2C(=O)c3cccc(NCc4ccc(CN5CC(N6CCOCC6)C5)cc4F)c3C2=O)C(=O)N1 [Compound 1, (S)-2-(2,6-dioxopiperidin-3-yl)-4-((2-fluoro-4-((3-morpholinoazetidin-1-yl)methyl)benzyl)amino)isoindoline-1,3-dione] | ≥ 10 µM | ≥ 10 µM | ≥ 10 µM | antiproliferative activity and/or apoptotic effects in almost all hematological cell lines tested | ≥ 10 µM | ≥ 10 µM | ≥ 10 µM | ≥ 10 µM |
| relatively high | – | Cl.O=C1CC[C@H](N2C(=O)c3cccc(NCc4ccc(CN5CC(N6CCOCC6)C5)cc4F)c3C2=O)C(=O)N1 [Compound 1 HC, salt] | – | – | – | – | – | – | – | – |
